Data taken from ChEMBL document CHEMBL4507260 (2021).

Columns and labels:
Details in all cases: Compound concentration 1000.0 nM
[1] = test system: Tyrosine-protein kinase ABL1 (Homo sapiens), P00519 [T315I]
[2] = biological target: 5'-AMP-activated protein kinase catalytic subunit alpha-2 (Homo sapiens) (UniProt P54646)
[3] = biological target: Aurora kinase B (Homo sapiens) (UniProt Q96GD4)
[4] = biological target: Protein-tyrosine kinase 6 (Homo sapiens) (UniProt Q13882)
[5] = biological target: Calcium/calmodulin-dependent protein kinase type II subunit delta (Homo sapiens) (UniProt Q13557)
[6] = biological target: Cyclin-dependent kinase 9 (Homo sapiens) (UniProt P50750)
[7] = biological target: Citron Rho-interacting kinase (Homo sapiens) (UniProt O14578)
[8] = biological target: Dual specificity protein kinase CLK1 (Homo sapiens) (UniProt P49759)
[9] = biological target: Macrophage colony-stimulating factor 1 receptor (Homo sapiens) (UniProt P07333)
[10] = biological target: Macrophage colony-stimulating factor 1 receptor (Homo sapiens) (UniProt P07333); remark: listed apart in the source
[11] = biological target: Casein kinase I isoform epsilon (Homo sapiens) (UniProt P49674)
[12] = biological target: Casein kinase I isoform gamma-3 (Homo sapiens) (UniProt Q9Y6M4)
[13] = biological target: Epithelial discoidin domain-containing receptor 1 (Homo sapiens) (UniProt Q08345)
[14] = biological target: Serine/threonine-protein kinase MRCK gamma (Homo sapiens) (UniProt Q6DT37)
[15] = biological target: Ephrin type-A receptor 2 (Homo sapiens) (UniProt P29317)
[16] = biological target: Mitogen-activated protein kinase 6 (Homo sapiens) (UniProt Q16659)
[17] = biological target: Tyrosine-protein kinase Fer (Homo sapiens) (UniProt P16591)
[18] = test system: Receptor-type tyrosine-protein kinase FLT3 (Homo sapiens), P36888 [UNDEFINED MUTATION]
[19] = biological target: Tyrosine-protein kinase Fyn (Homo sapiens) (UniProt P06241)
[20] = biological target: G protein-coupled receptor kinase 4 (Homo sapiens) (UniProt P32298)
[21] = biological target: Inhibitor of nuclear factor kappa-B kinase subunit beta (Homo sapiens) (UniProt O14920)
[22] = biological target: Mast/stem cell growth factor receptor Kit (Homo sapiens) (UniProt P10721)
[23] = biological target: Serine/threonine-protein kinase MAK (Homo sapiens) (UniProt P20794)
[24] = biological target: Mitogen-activated protein kinase kinase kinase 15 (Homo sapiens) (UniProt Q6ZN16)
[25] = biological target: Mitogen-activated protein kinase kinase kinase 2 (Homo sapiens) (UniProt Q9Y2U5)
[26] = biological target: Mitogen-activated protein kinase kinase kinase kinase 3 (Homo sapiens) (UniProt Q8IVH8)
[27] = biological target: MAP kinase-activated protein kinase 2 (Homo sapiens) (UniProt P49137)
[28] = biological target: Mitogen-activated protein kinase kinase kinase 9 (Homo sapiens) (UniProt P80192)
[29] = biological target: Mitogen-activated protein kinase kinase kinase 10 (Homo sapiens) (UniProt Q02779)
[30] = biological target: Serine/threonine-protein kinase PAK 1 (Homo sapiens) (UniProt Q13153)
[31] = biological target: Cyclin-dependent kinase 16 (Homo sapiens) (UniProt Q00536)
[32] = biological target: Cyclin-dependent kinase 18 (Homo sapiens) (UniProt Q07002)
[33] = test system: Phosphatidylinositol 4,5-bisphosphate 3-kinase catalytic subunit alpha isoform (Homo sapiens), P42336 [C420R]
[34] = test system: Phosphatidylinositol 4,5-bisphosphate 3-kinase catalytic subunit alpha isoform (Homo sapiens), P42336 [E545A]
[35] = biological target: Phosphatidylinositol 4,5-bisphosphate 3-kinase catalytic subunit delta isoform (Homo sapiens) (UniProt O00329)
[36] = biological target: Serine/threonine-protein kinase PLK1 (Homo sapiens) (UniProt P53350)
[37] = biological target: cGMP-dependent protein kinase 2 (Homo sapiens) (UniProt Q13237)
[38] = test system: Proto-oncogene tyrosine-protein kinase receptor Ret (Homo sapiens), P07949 [M918T]
[39] = biological target: Ribosomal protein S6 kinase alpha-2 (Homo sapiens) (UniProt Q15349)
[40] = biological target: Ribosomal protein S6 kinase beta-1 (Homo sapiens) (UniProt P23443)
[41] = biological target: Proto-oncogene tyrosine-protein kinase Src (Homo sapiens) (UniProt P12931)
[42] = biological target: Tyrosine-protein kinase Srms (Homo sapiens) (UniProt Q9H3Y6)
[43] = biological target: Serine/threonine-protein kinase TAO1 (Homo sapiens) (UniProt Q7L7X3)
[44] = biological target: Serine/threonine-protein kinase TAO3 (Homo sapiens) (UniProt Q9H2K8)
[45] = biological target: Activated CDC42 kinase 1 (Homo sapiens) (UniProt Q07912)

Chain of Macrophage colony-stimulating factor 1 receptor (Homo sapiens) (P07333 whole entry, canonical isoform): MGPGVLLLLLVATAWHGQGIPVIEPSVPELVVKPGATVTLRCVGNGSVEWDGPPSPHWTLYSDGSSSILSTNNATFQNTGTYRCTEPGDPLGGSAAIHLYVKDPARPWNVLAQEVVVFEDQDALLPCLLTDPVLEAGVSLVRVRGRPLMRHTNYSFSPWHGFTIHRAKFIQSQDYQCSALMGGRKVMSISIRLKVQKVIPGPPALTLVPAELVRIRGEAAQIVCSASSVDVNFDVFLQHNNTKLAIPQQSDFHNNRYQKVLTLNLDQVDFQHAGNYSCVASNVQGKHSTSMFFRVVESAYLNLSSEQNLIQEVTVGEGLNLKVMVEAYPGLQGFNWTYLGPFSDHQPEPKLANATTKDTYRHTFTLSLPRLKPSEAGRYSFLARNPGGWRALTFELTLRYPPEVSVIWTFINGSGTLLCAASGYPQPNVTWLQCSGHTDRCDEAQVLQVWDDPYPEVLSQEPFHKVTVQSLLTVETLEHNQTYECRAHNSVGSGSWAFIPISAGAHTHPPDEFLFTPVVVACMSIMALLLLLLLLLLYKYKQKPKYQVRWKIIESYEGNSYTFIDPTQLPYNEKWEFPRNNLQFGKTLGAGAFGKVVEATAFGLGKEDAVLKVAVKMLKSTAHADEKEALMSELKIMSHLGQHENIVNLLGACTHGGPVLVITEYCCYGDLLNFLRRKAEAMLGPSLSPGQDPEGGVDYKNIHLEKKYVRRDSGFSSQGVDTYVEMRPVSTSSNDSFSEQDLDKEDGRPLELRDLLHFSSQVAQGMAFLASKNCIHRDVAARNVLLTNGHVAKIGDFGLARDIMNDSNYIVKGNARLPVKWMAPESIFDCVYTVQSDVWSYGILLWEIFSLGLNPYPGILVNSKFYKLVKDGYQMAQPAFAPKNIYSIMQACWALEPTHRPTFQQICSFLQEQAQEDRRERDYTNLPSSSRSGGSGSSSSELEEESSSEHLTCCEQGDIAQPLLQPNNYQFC
Chain of G protein-coupled receptor kinase 4 (Homo sapiens) (P32298 whole entry, looked up): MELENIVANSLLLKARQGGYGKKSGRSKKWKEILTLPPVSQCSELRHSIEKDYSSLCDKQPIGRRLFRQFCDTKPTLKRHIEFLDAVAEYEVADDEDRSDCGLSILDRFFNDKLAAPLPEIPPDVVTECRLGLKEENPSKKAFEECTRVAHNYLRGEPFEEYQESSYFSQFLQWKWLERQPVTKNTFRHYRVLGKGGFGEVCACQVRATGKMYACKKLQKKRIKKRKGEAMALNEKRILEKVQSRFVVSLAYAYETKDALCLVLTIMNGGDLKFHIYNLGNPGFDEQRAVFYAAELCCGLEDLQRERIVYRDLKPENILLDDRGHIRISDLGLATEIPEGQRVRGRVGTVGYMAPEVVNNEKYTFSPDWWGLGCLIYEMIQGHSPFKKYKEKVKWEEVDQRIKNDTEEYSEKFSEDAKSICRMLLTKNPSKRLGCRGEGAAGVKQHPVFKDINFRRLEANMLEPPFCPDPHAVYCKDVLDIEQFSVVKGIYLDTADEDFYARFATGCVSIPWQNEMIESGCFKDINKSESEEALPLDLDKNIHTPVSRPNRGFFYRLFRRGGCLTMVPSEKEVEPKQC
Chain of Inhibitor of nuclear factor kappa-B kinase subunit beta (Homo sapiens) (O14920 whole entry): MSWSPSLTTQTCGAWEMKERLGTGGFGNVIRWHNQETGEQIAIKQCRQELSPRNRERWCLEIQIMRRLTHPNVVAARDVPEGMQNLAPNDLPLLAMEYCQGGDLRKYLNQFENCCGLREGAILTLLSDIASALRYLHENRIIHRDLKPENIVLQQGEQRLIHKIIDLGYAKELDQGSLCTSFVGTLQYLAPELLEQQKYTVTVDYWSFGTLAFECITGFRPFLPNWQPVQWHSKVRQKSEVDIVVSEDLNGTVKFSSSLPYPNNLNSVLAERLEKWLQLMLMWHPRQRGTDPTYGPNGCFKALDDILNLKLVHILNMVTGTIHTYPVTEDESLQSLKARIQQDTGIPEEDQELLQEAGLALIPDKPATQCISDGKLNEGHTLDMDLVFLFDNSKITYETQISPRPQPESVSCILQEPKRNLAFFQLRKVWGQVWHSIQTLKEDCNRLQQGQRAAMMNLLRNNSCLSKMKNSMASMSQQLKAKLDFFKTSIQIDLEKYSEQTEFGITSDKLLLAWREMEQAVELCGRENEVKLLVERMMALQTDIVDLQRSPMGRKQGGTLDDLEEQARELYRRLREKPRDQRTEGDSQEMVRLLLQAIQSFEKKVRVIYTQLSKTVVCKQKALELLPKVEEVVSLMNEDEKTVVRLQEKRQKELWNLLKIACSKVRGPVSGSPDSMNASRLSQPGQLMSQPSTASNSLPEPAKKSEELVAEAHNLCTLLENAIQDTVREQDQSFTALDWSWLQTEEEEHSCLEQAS
Chain of Cyclin-dependent kinase 16 (Homo sapiens) (Q00536 whole entry): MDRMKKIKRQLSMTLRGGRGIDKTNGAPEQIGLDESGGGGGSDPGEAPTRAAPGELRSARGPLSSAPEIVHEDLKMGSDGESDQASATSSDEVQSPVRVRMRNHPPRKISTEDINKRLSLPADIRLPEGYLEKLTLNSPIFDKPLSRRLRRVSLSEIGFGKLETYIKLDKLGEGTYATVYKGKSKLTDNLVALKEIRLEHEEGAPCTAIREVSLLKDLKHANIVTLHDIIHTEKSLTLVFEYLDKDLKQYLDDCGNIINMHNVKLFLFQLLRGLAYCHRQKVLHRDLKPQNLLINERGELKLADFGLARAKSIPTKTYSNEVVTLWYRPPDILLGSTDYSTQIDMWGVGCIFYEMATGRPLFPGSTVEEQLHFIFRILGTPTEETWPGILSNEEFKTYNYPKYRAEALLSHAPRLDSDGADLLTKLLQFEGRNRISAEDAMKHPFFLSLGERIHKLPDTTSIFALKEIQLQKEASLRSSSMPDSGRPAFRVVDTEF
Chain of Cyclin-dependent kinase 18 (Homo sapiens) (Q07002 whole entry, canonical isoform): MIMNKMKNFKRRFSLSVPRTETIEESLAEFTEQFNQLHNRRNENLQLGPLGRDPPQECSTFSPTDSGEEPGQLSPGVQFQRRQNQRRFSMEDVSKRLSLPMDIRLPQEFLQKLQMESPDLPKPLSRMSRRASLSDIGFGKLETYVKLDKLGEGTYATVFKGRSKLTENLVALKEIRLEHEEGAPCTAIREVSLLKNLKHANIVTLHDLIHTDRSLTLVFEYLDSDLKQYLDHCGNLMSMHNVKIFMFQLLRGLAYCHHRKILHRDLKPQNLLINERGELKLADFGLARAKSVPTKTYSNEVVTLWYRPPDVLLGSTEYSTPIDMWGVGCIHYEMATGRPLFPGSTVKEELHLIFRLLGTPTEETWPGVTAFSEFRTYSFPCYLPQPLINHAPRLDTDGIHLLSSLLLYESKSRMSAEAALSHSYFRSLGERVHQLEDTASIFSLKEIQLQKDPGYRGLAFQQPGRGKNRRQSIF
Chain of Tyrosine-protein kinase Fer (Homo sapiens) (P16591 whole entry, looked up): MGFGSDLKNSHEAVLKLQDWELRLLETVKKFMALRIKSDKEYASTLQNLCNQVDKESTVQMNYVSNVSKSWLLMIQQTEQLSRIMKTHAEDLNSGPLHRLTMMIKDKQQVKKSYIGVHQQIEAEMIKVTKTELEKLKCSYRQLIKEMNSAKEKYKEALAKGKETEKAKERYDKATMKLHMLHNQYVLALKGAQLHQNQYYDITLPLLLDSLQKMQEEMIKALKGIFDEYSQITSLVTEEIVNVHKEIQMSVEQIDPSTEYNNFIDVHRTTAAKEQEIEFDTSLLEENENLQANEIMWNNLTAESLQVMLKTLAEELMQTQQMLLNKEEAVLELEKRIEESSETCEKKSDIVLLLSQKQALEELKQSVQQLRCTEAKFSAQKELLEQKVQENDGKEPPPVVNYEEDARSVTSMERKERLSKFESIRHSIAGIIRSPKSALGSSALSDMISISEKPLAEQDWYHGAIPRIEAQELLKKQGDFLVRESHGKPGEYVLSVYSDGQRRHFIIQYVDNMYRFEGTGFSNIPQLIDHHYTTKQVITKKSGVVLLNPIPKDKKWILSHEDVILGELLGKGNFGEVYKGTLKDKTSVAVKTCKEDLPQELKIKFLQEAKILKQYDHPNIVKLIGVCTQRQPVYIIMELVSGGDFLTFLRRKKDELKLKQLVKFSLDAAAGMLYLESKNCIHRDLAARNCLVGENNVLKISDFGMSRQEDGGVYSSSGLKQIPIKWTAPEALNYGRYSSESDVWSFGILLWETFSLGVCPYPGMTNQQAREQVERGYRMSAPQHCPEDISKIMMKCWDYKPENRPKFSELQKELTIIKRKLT
Chain of Cyclin-dependent kinase 9 (Homo sapiens) (P50750 whole entry): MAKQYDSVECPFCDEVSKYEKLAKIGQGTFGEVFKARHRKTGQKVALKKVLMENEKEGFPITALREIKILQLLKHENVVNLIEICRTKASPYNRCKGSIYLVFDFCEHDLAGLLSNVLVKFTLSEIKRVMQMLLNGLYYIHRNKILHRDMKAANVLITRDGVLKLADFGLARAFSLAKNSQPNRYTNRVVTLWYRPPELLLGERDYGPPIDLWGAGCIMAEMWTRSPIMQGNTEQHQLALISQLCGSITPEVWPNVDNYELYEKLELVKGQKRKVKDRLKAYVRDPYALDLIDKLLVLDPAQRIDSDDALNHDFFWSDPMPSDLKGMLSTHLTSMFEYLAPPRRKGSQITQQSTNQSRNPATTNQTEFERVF
Chain of Ribosomal protein S6 kinase beta-1 (Homo sapiens) (P23443 whole entry, looked up): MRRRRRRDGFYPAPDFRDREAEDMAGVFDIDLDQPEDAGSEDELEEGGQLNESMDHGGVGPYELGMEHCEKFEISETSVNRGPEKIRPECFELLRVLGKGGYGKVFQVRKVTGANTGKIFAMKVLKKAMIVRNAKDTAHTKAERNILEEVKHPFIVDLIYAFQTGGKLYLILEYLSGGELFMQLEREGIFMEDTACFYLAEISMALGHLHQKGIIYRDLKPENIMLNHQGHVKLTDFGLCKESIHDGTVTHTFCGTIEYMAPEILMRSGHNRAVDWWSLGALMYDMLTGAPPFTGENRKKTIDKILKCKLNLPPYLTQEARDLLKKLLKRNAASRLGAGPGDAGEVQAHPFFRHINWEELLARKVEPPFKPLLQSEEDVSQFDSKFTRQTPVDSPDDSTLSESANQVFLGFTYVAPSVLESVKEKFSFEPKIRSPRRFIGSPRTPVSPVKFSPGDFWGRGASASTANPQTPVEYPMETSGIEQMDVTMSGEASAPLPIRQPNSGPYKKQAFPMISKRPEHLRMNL

## c1ccc(N2CCN(Cc3nc4ccccc4[nH]3)CC2)nc1 [ABT-724]
[1]
  residual activity: 100%
[2]
  residual activity: 100%
[3]
  residual activity: 18%
[4]
  residual activity: 100%
[5]
  residual activity: 91%
[6]
  residual activity: 100%
[7]
  residual activity: 88%
[8]
  residual activity: 100%
[9]
  residual activity: 98%
[10]
  residual activity: 100%
[11]
  residual activity: 100%
[12]
  residual activity: 100%
[13]
  residual activity: 100%
[14]
  residual activity: 100%
[15]
  residual activity: 100%
[16]
  residual activity: 100%
[17]
  residual activity: 100%
[18]
  residual activity: 100%
[19]
  residual activity: 100%
[20]
  residual activity: 100%
[21]
  residual activity: 100%
[22]
  residual activity: 100%
[23]
  residual activity: 100%
[24]
  residual activity: 100%
[25]
  residual activity: 100%
[26]
  residual activity: 100%
[27]
  residual activity: 100%
[28]
  residual activity: 100%
[29]
  residual activity: 93%
[30]
  residual activity: 94%
[31]
  residual activity: 100%
[32]
  residual activity: 94%
[33]
  residual activity: 100%
[34]
  residual activity: 87%
[35]
  residual activity: 69%
[36]
  residual activity: 100%
[37]
  residual activity: 100%
[38]
  residual activity: 100%
[39]
  residual activity: 99%
[40]
  residual activity: 97%
[41]
  residual activity: 93%
[42]
  residual activity: 94%
[43]
  residual activity: 100%
[44]
  residual activity: 86%
[45]
  residual activity: 100%

## CSc1cccnc1N1CCN(Cc2nc3ccccc3[nH]2)CC1 [A-769]
[1]
  residual activity: 93%
[2]
  residual activity: 100%
[3]
  residual activity: 67%
[4]
  residual activity: 88%
[5]
  residual activity: 100%
[6]
  residual activity: 97%
[7]
  residual activity: 100%
[8]
  residual activity: 80%
[9]
  residual activity: 100%
[10]
  residual activity: 73%
[11]
  residual activity: 91%
[12]
  residual activity: 86%
[13]
  residual activity: 100%
[14]
  residual activity: 100%
[15]
  residual activity: 100%
[16]
  residual activity: 100%
[17]
  residual activity: 100%
[18]
  residual activity: 100%
[19]
  residual activity: 100%
[20]
  residual activity: 88%
[21]
  residual activity: 86%
[22]
  residual activity: 100%
[23]
  residual activity: 100%
[24]
  residual activity: 67%
[25]
  residual activity: 82%
[26]
  residual activity: 100%
[27]
  residual activity: 80%
[28]
  residual activity: 100%
[29]
  residual activity: 100%
[30]
  residual activity: 100%
[31]
  residual activity: 81%
[32]
  residual activity: 100%
[33]
  residual activity: 100%
[34]
  residual activity: 96%
[35]
  residual activity: 100%
[36]
  residual activity: 78%
[37]
  residual activity: 94%
[38]
  residual activity: 99%
[39]
  residual activity: 100%
[40]
  residual activity: 87%
[41]
  residual activity: 100%
[42]
  residual activity: 100%
[43]
  residual activity: 100%
[44]
  residual activity: 93%
[45]
  residual activity: 100%
